According to patent US8048638B2, “Biomarkers of liver injury” (priority 2005, dated 2011):

Key:
Rats [1] = test: Serum ASS, CPS-1, SULT2A1 and ALT levels after repeated MDMA injections (Ecstasy liver injury); format: in vivo, rat; conditions: for Serum ASS compared to control serum levels / Serum SULT2A1 compared to control serum levels: i.p.; for Serum ASS compared to control serum levels: 10 mg/kg injections at 1.5 hr intervals
Experimental: Serum arginosuccinate synthetase (ASS), carbamoylphosphate synthase-1 (CPS-1) and sulfur transferase isoform A1 (SULT2A1) levels were measured after repeated injections of 10 mg/kg of methylenedioxyacetamine (MDMA) at 1.5 hr intervals.

Rats [2] = conditions: Western blot
Experimental: The analysis shown in Table 1, is performed by Western blot using antibody available through various sources. Typically, 25 μg protein are loaded with two identical sets of 5 samples, separated in 4-20% polyacrylamide gel mini-slabs, and transferred onto PVDF membrane. The membrane is cut in 2 pieces, blocked, probed with two different antibodies, visualized using ECL Plus Kit (Pierce, Inc) and scanned. The membranes are stripped using stripping buffer and re-probed with other two antibody. After visualizing the bands with EDCL Plus Kit and scanning, membranes are stripped again, probed with aII-spectrin antibody and developed using alkaline phosphatase detection method. For accurate assessment of molecular mass of developed proteins, two sets of protein standards are added and developed simultaneously (Magic Markers, Invitrogen, Inc).
Blood is collected from rat heart at the end of experimental procedures. Plasma is obtained from K-EDTA preserved blood by centrifugation. 20 μl of plasma or serum is mixed with 180 μl of RIPA buffer (with proteases inhibitors), vortexed, incubated on ice for 30 min and centrifuged. Supernatants are removed, aliquots mixed with sample buffer 1:1, heated and loaded onto gel.

Rats [3] = test: Plasma ASS and ALT accumulation after carbon tetrachloride injection (chlorinated hydrocarbon liver injury); format: in vivo, rat; conditions: for Plasma ASS increase relative to control (FIG. 30A): rat model; for Plasma ALT accumulation / Plasma ASS increase compared to controls: rats; for Plasma ASS increase compared to controls: 0.5 ml/kg CCL4 in vegetable oil
Experimental: Rats (n=6) were injected with 0.5 ml/kg of carbon tetrachloride (CCL4) in vegetable oil. Plasma arginosuccinate synthetase (ASS) and alanine transaminase (ALT) accumulation was measured 1 hr and 24 hr after injection. ASS increased over 15-fold compared to controls after 1 hr and over 50-fold compared to controls after 24 hr (p<0.0001), as shown in FIG. 30A.

CNC(C)Cc1ccc2c(c1)OCO2 (stereo not drawn) [MDMA, methylenedioxyacetamine]
Serum ASS compared to control serum levels (Rats [1]; total 20 mg/kg, p<0.01): significant increase
Serum ASS compared to control serum levels (Rats [1]; total 40 mg/kg, p<0.001): significant increase
Serum SULT2A1 compared to control serum levels (Rats [1]; total 20 mg/kg, p<0.001): significant increase
Serum SULT2A1 compared to control serum levels (Rats [1]; total 40 mg/kg, p<0.0001): significant increase
Serum carbamoylphosphate synthase-1 (CPS-1) levels (Rats [1]; repeated i.p. injection, total 40 mg/kg, 24 hr after last injection, PAGE): increased levels
Alanine transferase (ALT) (Rats [1]; repeated i.p. injections of 10 mg/kg): No increase

CCO [alcohol]
ALT in plasma (Rats [2]; chronic alcohol rats): increased
GST-BB in plasma (Rats [2]; rats chronically treated with alcohol): significant increase
Intact ASS protein (46 kDa) in plasma (Rats [2]; rats with chronic alcoholic administration): absent

ClC(Cl)(Cl)Cl [carbon tetrachloride]
Plasma ASS increase relative to control (FIG. 30A) (Rats [3]; 1 hr after injection): 15 times
Plasma ASS increase relative to control (FIG. 30A) (Rats [3]; 24 hr post injection): 50 times
Plasma ALT accumulation (Rats [3]; 0.5 ml/kg CCL4, 1 hr after injection): did not increase significantly
Plasma ALT accumulation (Rats [3]; 0.5 ml/kg CCL4, 24 hr after injection, p=0.041): significant increase
Plasma ASS increase compared to controls (Rats [3]; 1 hr after injection): over 15 fold
Plasma ASS increase compared to controls (Rats [3]; 24 hr after injection, p<0.0001): over 50 fold
